Experimental data taken from patent US8557816B2, “Aurora kinase modulators and method of use” (Amgen Inc., priority 2007, dated 2013).

Tests used:
AuroraA-TPX2 = biological target: T1, AuroraA-TPX2 (Homo sapiens, UniProt O14965); assay: AuroraA-TPX2 Homogeneous Time Resolved Fluorescent (HTRF) kinase assay; assay type: biochemical; conditions: average; read-out: AurA_IC50_IP (uM Avg)
T1 construct: 20 μL of AuroraA-TPX2 KD GST for a final volume of about 41 μL; GST
T1 sequence (O14965 133-383 limits assumed): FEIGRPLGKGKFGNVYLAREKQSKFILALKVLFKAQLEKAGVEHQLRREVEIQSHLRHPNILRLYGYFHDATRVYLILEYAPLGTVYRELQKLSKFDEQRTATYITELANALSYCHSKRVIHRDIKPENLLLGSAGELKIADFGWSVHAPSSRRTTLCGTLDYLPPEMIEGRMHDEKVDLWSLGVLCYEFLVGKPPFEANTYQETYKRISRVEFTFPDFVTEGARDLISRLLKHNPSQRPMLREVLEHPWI
T1 sequence (Q9ULW0 1-43 partner limits assumed): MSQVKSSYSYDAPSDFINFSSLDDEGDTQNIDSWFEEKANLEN
How it was run: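 HTRF read-out (Eu 615 nm to APC 655 nm) of phosphorylated biotin-PLK, detected with 0.02 nM europium anti-phosphoPLK antibody and 0.0005 mg/mL SA-APC after overnight equilibration.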

AuroraB = biological target: T2, AuroraB (Homo sapiens, UniProt Q96GD4); assay: AuroraB Homogeneous Time Resolved Fluorescent (HTRF) kinase assay; assay type: biochemical; conditions: average; read-out: AurB_IC50_IP (uM Avg)
T2 construct: 20 μL of AuroraB FL H is for a final volume of 41 μL; His
How it was run: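 Full-length His-tagged kinase phosphorylates biotinylated Histone H3 (0.1 μM final) with ATP in pH 7.5 HEPES containing MgCl, MnCl, DTT and BSA for about 90 min. EDTA-containing detection mix with SA-APC and Eu-anti-phosphoHistone H3 then equilibrated about 60 min; HTRF read with 320 nm excitation, emissions 615/655 nm.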

T2 sequence (Q96GD4 whole entry): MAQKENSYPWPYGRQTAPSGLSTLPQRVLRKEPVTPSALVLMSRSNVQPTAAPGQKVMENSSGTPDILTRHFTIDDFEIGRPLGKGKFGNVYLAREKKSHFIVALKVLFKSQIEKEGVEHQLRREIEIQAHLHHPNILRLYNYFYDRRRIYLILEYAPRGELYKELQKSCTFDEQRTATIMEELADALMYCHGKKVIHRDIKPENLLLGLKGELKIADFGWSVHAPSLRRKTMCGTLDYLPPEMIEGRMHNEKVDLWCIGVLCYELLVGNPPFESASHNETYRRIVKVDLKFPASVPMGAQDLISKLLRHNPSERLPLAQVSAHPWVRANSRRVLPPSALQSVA

Row | Structure (SMILES) | IC50 (AuroraA-TPX2) [µM] | IC50 (AuroraB) [µM]
1 | COc1ccccc1-c1nnc(Nc2ccc(Oc3ccnc4cc(C#N)ccc34)cc2)c2ccccc12 [compound 119, 4-((4-((4-(2-(methyloxy)phenyl)-1-phthalazinyl)amino)phenyl)oxy)-7-quinolinecarbonitrile] | 0.175 | 0.007
2 | COCc1cccc(-c2nnc(Nc3ccc(Oc4ccnc5cc(OC)cnc45)cc3)c3ccccc23)n1 [compound 120, 4-(6-((methyloxy)methyl)-2-pyridinyl)-N-(4-((7-(methyloxy)-1,5-naphthyridin-4-yl)oxy)phenyl)-1-phthalazinamine] | 0.019 | 0.003
3 | COc1cc2nccc(Oc3ccc(Nc4nnc(-c5cc(C)ccn5)c5ccccc45)cc3)c2cn1 [compound 121, N-(4-((7-(methyloxy)-1,6-naphthyridin-4-yl)oxy)phenyl)-4-(4-methyl-2-pyridinyl)-1-phthalazinamine] | 0.041 | 0.007
4 | Cc1ccc(-c2nnc(Nc3ccc(Oc4ccnc5cc(C#N)ccc45)cc3)c3ccccc23)nc1 [compound 122, 4-((4-((4-(5-methyl-2-pyridinyl)-1-phthalazinyl)amino)phenyl)oxy)-7-quinolinecarbonitrile] | 0.022 | 0.003
5 | COc1cc2ncnc(Oc3ccc(Nc4nnc(-c5cc(C)ccn5)c5ccccc45)cc3)c2cc1OC [compound 123, N-(4-((6,7-bis(methyloxy)-4-quinazolinyl)oxy)phenyl)-4-(4-methyl-2-pyridinyl)-1-phthalazinamine] | 0.132 | 0.015
6 | COc1cc2nccc(Nc3ccc(Nc4nnc(-c5ccccc5)c5ccccc45)cc3)c2cn1 [compound 124, N-(7-(methyloxy)-1,6-naphthyridin-4-yl)-N′-(4-phenyl-1-phthalazinyl)-1,4-benzenediamine] | 0.042 | 0.002
7 | COc1cnc2c(Oc3ccc(Nc4nnc(-c5ccc(C)cn5)c5ccccc45)cc3)ccnc2c1 [compound 125, N-(4-((7-(methyloxy)-1,5-naphthyridin-4-yl)oxy)phenyl)-4-(5-methyl-2-pyridinyl)-1-phthalazinamine] | 0.018 | 0.003
8 | COc1cnc2c(Oc3ccc(Cc4nnc(-c5ccc(C)cc5)c5ccccc45)cc3)ccnc2c1 [compound 126, 3-(methyloxy)-8-((4-((4-(4-methylphenyl)-1-phthalazinyl)methyl)phenyl)oxy)-1,5-naphthyridine] | 0.388 | 0.017
9 | COc1cc2nccc(Oc3ccc(Nc4nnc(-c5cccc(C)n5)c5ccccc45)cn3)c2cn1 [compound 127, N-(6-((7-(methyloxy)-1,6-naphthyridin-4-yl)oxy)-3-pyridinyl)-4-(6-methyl-2-pyridinyl)-1-phthalazinamine] | 0.241 | 0.009
10 | COc1cnc2c(Oc3ccc(Nc4nnc(-c5cccc(C)n5)c5ccccc45)cn3)ccnc2c1 [compound 128, N-(6-((7-(methyloxy)-1,5-naphthyridin-4-yl)oxy)-3-pyridinyl)-4-(6-methyl-2-pyridinyl)-1-phthalazinamine] | 0.099 | 0.018
11 | COc1cncc(-c2nnc(Nc3ccc(Oc4ccnc5cc(OC)cnc45)cc3)c3ccccc23)c1 [compound 129, N-(4-((7-(methyloxy)-1,5-naphthyridin-4-yl)oxy)phenyl)-4-(5-(methyloxy)-3-pyridinyl)-1-phthalazinamine] | 0.165 | 0.014
12 | COc1cnc2c(Oc3ccc(Nc4nnc(-c5ccncc5OC)c5ccccc45)cc3)ccnc2c1 [compound 130, N-(4-((7-(methyloxy)-1,5-naphthyridin-4-yl)oxy)phenyl)-4-(3-(methyloxy)-4-pyridinyl)-1-phthalazinamine] | 0.654 | 0.1
13 | COc1cc2nccc(Oc3ccc(Nc4nnc(-c5cccc(OC)n5)c5ccccc45)cc3)c2cn1 [compound 131, N-(4-((7-(methyloxy)-1,6-naphthyridin-4-yl)oxy)phenyl)-4-(6-(methyloxy)-2-pyridinyl)-1-phthalazinamine] | 0.019 | 0.003
14 | COc1cnc2c(Oc3ccc(Nc4nnc(-c5cccc(COC(C)=O)n5)c5ccccc45)cc3)ccnc2c1 [compound 132, (6-(4-((4-((7-(methyloxy)-1,5-naphthyridin-4-yl)oxy)phenyl)amino)-1-phthalazinyl)-2-pyridinyl)methyl acetate] | 0.022 | 0.005
15 | Brc1ccc2c(Oc3ccc(Nc4nnc(-c5ccccc5)c5ccccc45)cc3)ccnc2c1 [compound 133, N-(4-((7-bromo-4-quinolinyl)oxy)phenyl)-4-phenyl-1-phthalazinamine] | 0.494 | 0.028
16 | Brc1ccc2nccc(Oc3ccc(Nc4nnc(-c5ccccc5)c5ccccc45)cc3)c2c1 [compound 134, N-(4-((6-bromo-4-quinolinyl)oxy)phenyl)-4-phenyl-1-phthalazinamine] | 0.176 | 0.024
17 | COc1cnc2c(Oc3ccc(Nc4nnc(-c5ccccc5)c5ccccc45)nc3)ccnc2c1 [compound 135, N-(5-((7-(methyloxy)-1,5-naphthyridin-4-yl)oxy)-2-pyridinyl)-4-phenyl-1-phthalazinamine] | 0.063 | 0.012
18 | COc1cnc2c(Oc3ccc(Nc4nnc(-c5ccc6c(c5)CC(C)(C)O6)c5ccccc45)cc3)ccnc2c1 [compound 136, 4-(2,2-dimethyl-2,3-dihydro-1-benzofuran-5-yl)-N-(4-((7-(methyloxy)-1,5-naphthyridin-4-yl)oxy)phenyl)-1-phthalazinamine] | 0.037 | 0.016
19 | COc1cnc2c(Oc3ccc(Nc4nnc(-c5ccc(OC(C)C)cc5)c5ccccc45)cc3)ccnc2c1 [compound 137, 4-(4-((1-methylethyl)oxy)phenyl)-N-(4-((7-(methyloxy)-1,5-naphthyridin-4-yl)oxy)phenyl)-1-phthalazinamine] | 0.091 | 0.018
20 | COc1cnc2c(Oc3ccc(Nc4nnc(-c5ccc(C)s5)c5ccccc45)cc3)ccnc2c1 [compound 138, N-(4-((7-(methyloxy)-1,5-naphthyridin-4-yl)oxy)phenyl)-4-(5-methyl-2-thienyl)-1-phthalazinamine] | 0.018 | 0.013
21 | COc1cccc(-c2nnc(Nc3ccc(Oc4ccnc5cc(OC)cnc45)cc3)c3ccccc23)c1 [compound 139, N-(4-((7-(methyloxy)-1,5-naphthyridin-4-yl)oxy)phenyl)-4-(3-(methyloxy)phenyl)-1-phthalazinamine] | 0.018 | 0.006
22 | COc1cnc2c(Oc3ccc(Nc4nnc(-c5ccc(Cl)s5)c5ccccc45)cc3)ccnc2c1 [compound 140, 4-(5-chloro-2-thienyl)-N-(4-((7-(methyloxy)-1,5-naphthyridin-4-yl)oxy)phenyl)-1-phthalazinamine] | 0.022 | 0.008
23 | COc1ccc(-c2nnc(Nc3ccc(Oc4ccnc5cc(C#N)ccc45)cc3)c3ccccc23)cc1 [compound 141, 4-((4-((4-(4-(methyloxy)phenyl)-1-phthalazinyl)amino)phenyl)oxy)-7-quinolinecarbonitrile] | 0.019 | 0.004
24 | COc1cnc2c(Oc3ccc(Nc4nnc(-c5ccc6sccc6c5)c5ccccc45)cc3)ccnc2c1 [compound 142, 4-(1-benzothien-5-yl)-N-(4-((7-(methyloxy)-1,5-naphthyridin-4-yl)oxy)phenyl)-1-phthalazinamine] | 0.008 | 0.007
25 | COc1cnc2c(Oc3ccc(Nc4nnc(-c5cc6ccccc6n5C)c5ccccc45)cc3)ccnc2c1 [compound 143, 4-(1-methyl-1H-indol-2-yl)-N-(4-((7-(methyloxy)-1,5-naphthyridin-4-yl)oxy)phenyl)-1-phthalazinamine] | 0.012 | 0.009
26 | COc1cnc2c(Oc3ccc(Nc4ncc(-c5ccccc5)c5ccccc45)cc3)ccnc2c1 [compound 144, N-(4-((7-(methyloxy)-1,5-naphthyridin-4-yl)oxy)phenyl)-4-phenyl-1-isoquinolinamine] | 0.061 | 0.02
27 | COc1cc2nccc(Oc3ccc(Nc4ncc(-c5ccccc5)c5ccccc45)cc3)c2cn1 [compound 145, N-(4-((7-(methyloxy)-1,6-naphthyridin-4-yl)oxy)phenyl)-4-phenyl-1-isoquinolinamine] | 0.326 | 0.096
28 | COc1cnc2c(Oc3ccc(Nc4nnc(-c5ccc(C(F)(F)F)cc5)c5ccccc45)cc3)ccnc2c1 [compound 146, N-(4-((7-(methyloxy)-1,5-naphthyridin-4-yl)oxy)phenyl)-4-(4-(trifluoromethyl)phenyl)-1-phthalazinamine] | 0.026 | 0.008
29 | N#Cc1ccc2c(Oc3ccc(Nc4nnc(-c5ccc(C(F)(F)F)cc5)c5ccccc45)cc3)ccnc2c1 [compound 147, 4-((4-((4-(4-(trifluoromethyl)phenyl)-1-phthalazinyl)amino)phenyl)oxy)-7-quinolinecarbonitrile] | 0.025 | 0.011
30 | CCc1cc(-c2ccccc2)nnc1Nc1ccc(Oc2ncnc3cc(OC)c(OC)cc23)cc1 [compound 148, N-(4-((6,7-bis(methyloxy)-4-quinazolinyl)oxy)phenyl)-4-ethyl-6-phenyl-3-pyridazinamine] | 0.062 | 0.016
